The results in this text go back to patent US9005677B2, “Autophagy enhancer for treatment of neurodegenerative diseases” (Macau University of Science and Technology, priority 2013, dated 2015).

Molecules are shown by their SMILES.

For experiment [1], the system named is LC3-II conversion in PC12 cells. The experiment can be described thus: Western blot of autophagic marker protein LC3 conversion. The class given is cell-based. As for the experimental part: Detection of autophagic marker protein LC3 conversion. After drug treatments with or without autophagy inhibitor ([…] E64D and pepstain A), cells were harvested and lysed in RIPA buffer (Cell Signaling Technologies Inc., Beverly, Mass.). The cell lysates were then resolved by SDS-PAGE. After electrophoresis, the proteins from SDS-PAGE were transferred to nitrocellulose membrane which was then blocked with 5% non-fat dried milk for 60 minutes. The membrane was then incubated with LC3 primary antibodies (1:1000) in TBST overnight at 4° C. After that, the membrane was further incubated with HRP-conjugated secondary antibodies for 60 minutes. Finally, protein bands were visualized by using the ECL Western Blotting Detection Reagents (Invitrogen, Paisley, Scotland, UK).

Experiment [2] has as its system Atg7 wild-type mouse embryonic fibroblasts. The experiment can be described thus: GFP-LC3 puncta in Atg7 wild-type MEFs. The class given is cell-based. The method, then: (§1) Quantification of autophagy GFP-LC3 Puncta in Atg7 wild type and deficient MEFs. GFP-LC3 puncta formation was quantified as described previously. In brief, both Atg7 wild-type and deficient mouse embryonic fibroblasts (MEFs) grown on coverslips in a 6-well plate were treated with indicated concentrations of Onjisaponin B. The cells were then fixed in 4% paraformaldehyde for 20 minutes at room temperature and then rinsed with PBS. Slides were mounted with FluorSave™ mounting media (Calbiochem, San Diego, Calif.) and examined by fluorescence microscopy. The number of GFP-positive cells with GFP-LC3 puncta formation was examined under the Nikon ECLIPSE 80i microscope. Representative images were captured with CCD digital camera Spot RT3™ (Diagnostic Instruments, Inc., Melville, N.Y.). To quantify for autophagy, the percentage of cells with punctate GFP-LC3 fluorescence was calculated by counting the number of the cells with punctate GFP-LC3 fluorescence in GFP-positive cells. A minimum of 150 cells from 3 randomly selected fields was scored.

Experiment [3] relates to Atg7-knockout mouse embryonic fibroblasts. The experiment can be described thus: GFP-LC3 puncta in Atg7 deficient MEFs. The class given is cell-based. As for the experimental part: as §1
The test system of experiment [4] is PC12 cells expressing GFP-LC3. The experiment can be described thus: GFP-LC3 puncta in the presence of specific inhibitors. In kind it is cell-based, rat. The note with it: 12 hours. As for the experimental part:
Quantification of Onjisaponin B-mediated autophagy in the presence of specific inhibitors. GFP-LC3 puncta formation was quantified as described previously. In brief, PC12 cells expressing GFP-LC3 were treated with Onjisaponin B (Onji, 25 μM) in the presence of AMPK inhibitor (compound C) (CC, 5 μM) or 3-Methyladenine (3-MA, 5 mM) for 12 hours. The cells were then fixed in 4% paraformaldehyde for 20 minutes at room temperature and then rinsed with PBS. Slides were mounted with FluorSave™ mounting media (Calbiochem) and examined by fluorescence microscopy. To quantify for autophagy, the percentage of cells with punctate GFP-LC3 fluorescence was calculated by counting the number of the cells with punctate GFP-LC3 fluorescence in GFP-positive cells. A minimum of 150 cells from 3 randomly selected fields was scored.

The test system of experiment [5] is mutant huntingtin EGFP-HDQ74 in PC 12 cells. The experiment can be described thus: Removal of mutant huntingtin, immunoblotting against EGFP. In kind it is cell-based, rat. The note with it: 24 hours treatment. As for the experimental part: (§2) Removal of mutant huntingtin and mutant α-synuclein. PC 12 cells were transfected transiently with EGFP-HDQ74 plasmids for 24 hours using Lipofectamine Plus LTX reagent (Invitrogen) according to the manufacturer's protocol. The transfected cells were then treated with Onjisaponin B for 24 hours. The removal of mutant huntingtin, EGFP-HDQ74, was then quantitated by immunoblotting with antibody against EGFP. To measure the clearance of α-synuclein in cellular model, the overexpression of mutant A53T α-synuclein was first induced by the addition of doxycycline (1 μg/ml) (Sigma) for 24 hours, by using the doxycycline inducible PC 12 cell line transfected with A53T α-synuclein plasmid. The expression of mutant A53T α-synuclein was then switched off by removing doxycycline from medium. Cells were then incubated with Onjisaponin B for a further 24 hours. The clearance of mutant α-synuclein was then measured by immunoblotting with antibody against myc tag.

Experiment [6] concerns mutant A53T α-synuclein in doxycycline inducible PC 12 cell line. The experiment can be described thus: Clearance of mutant A53T α-synuclein, immunoblotting against myc tag. The class given is cell-based, rat. The note with it: PC 12 cells, 24 hours after doxycycline removal. The method, then: as §2
(In western blotting, separated proteins are transferred to a membrane and probed.)

Experiment [7] deals with PC-12 cells transfected with mutant huntingtin EGFP-HDQ74. The experiment can be described thus: MTT viability of PC-12 cells expressing mutant huntingtin. In kind it is cell-based, rat. To be noted: 25 μmol/L, 2 days. The method, then: Cell cytotoxicity assay: Cytotoxicity was assessed using the 344,5-dimethylthiazol-2-yl)-2,5-diphenyltetrazolium bromide assay as described previously. PC-12 cells were transfected with or without mutant huntingtin EGFP-HDQ74 for 24 h. The PC-12 cells were then seeded on 96-well plates with 4000 cells per well and then exposed to the indicated concentrations of Onjisaponin B (25 μmol/L) for 2 days. Subsequently, 10 μL of MTT reagents was added to each well and incubated at 37° C. for 4 hours, followed by the addition of 100 μL solubilization buffer (10% SDS in 0.01 mol/L HCl) and overnight incubation. Absorbance at 585 nm was determined from each well on the next day. The percentage of cell viability was calculated using the following formula: Cell viability (%)=Cells number treated/Cells number DMSO control×100. Data was obtained from three independent experiments.

In experiment [8] the test system is Doxycycline-inducible PC-12 cell lines transfected with mutant A53T α-synuclein. The experiment can be described thus: Cell death by flow cytometry (Annexin V / propidium iodide) in PC-12 cells expressing mutant A53T α-synuclein. In kind it is cell-based, rat. To be noted: 50 μM, 24 h after doxycycline removal. As for the experimental part: Flow cytometry analysis: Doxycycline-inducible PC-12 cell lines transfected with mutant A53T α-synuclein were induced with doxycycline (1 μg/mL) for 24 h and the expression of transgene was then switched off by the removal of doxycycline. Cells were then treated with Onjisaponin B (50 μM) for a further 24 h after doxycycline removal. The control group (Ctrl) contained cells without the addition of doxycycline, while the Dox group contained cells with the removal of doxycycline (1 μg/mL) after 24 h of induction but without treatment of Onjisaponin B. Cell death was then assessed by flow cytometry using Annexin V staining kit and Propidium iodide staining. Data from the bar chart represented the means±S.D. of three independent experiments. **p<0.01; *p<0.05. Flow cytometry was carried out using a FACSCalibur flow cytometer. Data acquisition and analysis were performed with CellQuest.
(In general: In flow cytometry, cells or beads pass a laser one at a time.)

Turning to `COc1ccc(/C=C/C(=O)O[C@@H]2[C@H](O[C@@H]3O[C@@H](C)[C@H](O)[C@@H](O)[C@H]3O)[C@@H](O[C@@H]3O[C@@H](C)[C@H](O[C@@H]4OC[C@@H](O[C@@H]5O[C@H](CO)[C@H](O)[C@H](O)[C@H]5O)[C@H](O)[C@H]4O)[C@@H](O)[C@H]3O)[C@H](OC(=O)[C@]34CCC(C)(C)C[C@H]3C3=CC[C@@H]5[C@@]6(C)C[C@H](O)[C@H](O[C@@H]7O[C@H](CO)[C@@H](O)[C@H](O)[C@H]7O)[C@@](C)(C(=O)O)[C@@H]6CC[C@@]5(C)[C@]3(CO)CC4)O[C@@H]2C)cc1` [Onjisaponin B], in experiment [1], the “LC3-II conversion (western blot)” value is reported as “increase of LC3-II conversion”. Further, in experiment [1] (with 10 µg/mL E64D and pepstain A), the “Rate of LC3-II formation in the presence of protease inhibitors (autophagic flux)” value is “increased the rate of LC3-II formation”. Further, in experiment [2], the “GFP-LC3 puncta formation in wild type Atg7 cells” value is “induce GFP-LC3 puncta formation”. The “GFP-LC3 puncta formation in Atg7-knockout cells” value in experiment [3] is reported as “not in Atg7-knockout mouse embryonic fibroblasts”. Also, the “Onjisaponin B-induced GFP-LC3 puncta formation in the presence of 3-Methyladenine” value in experiment [4] (Onjisaponin B 25 μM + 3-MA 5 mM) is recorded as “significant reduction”. For the same compound, the “Onjisaponin B-induced GFP-LC3 puncta formation in the presence of AMPK inhibitor (compound C)” value in experiment [4] (Onjisaponin B 25 μM + compound C 5 μM) was “significant reduction”. For the same compound, in experiment [5], the “Clearance of overexpressed EGFP-tagged mutant huntingtin with 74 CAG repeats” value was “enhanced the clearance”. Also, in experiment [6], the “Clearance of myc-tagged mutant A53T α-synuclein” value is on record as “accelerate the clearance”. For the same compound, in experiment [7], the “Toxicity in PC-12 cells expressing mutant huntingtin (cell viability, MTT)” value is reported as “reduced toxicity”. Further, the “Toxicity in PC-12 cells expressing mutant A53T α-synuclein (cell death, flow cytometry)” value in experiment [8] is on record as “reduced toxicity”.
